In patent US20250197424A1, “QUINOLINE COMPOUND AND USE THEREOF” (SHANGHAI PHARMACEUTICALS HOLDING CO., LTD., priority 2022, published 2025):
Where a name gives a salt, the structure may show the parent alone.

Each compound was assayed against GTP-KRAS-G12D:SOS1 (Homo sapiens (Human), UniProt P01116, G12D) (assay: GTP-KRAS-G12D:SOS1 binding inhibition).
Protocol: The IC50 of the compounds was fitted using a nonlinear regression equation with GraphPad Prism 8. The results are presented in Table 2: • Negative control: DMSO • Positive control: 100 μM BI-2852
The following nonlinear fitting formula was used to obtain the IC50 (half-maximal inhibitory concentration) of the compounds:
[formula] • X: logarithm of the compound concentration • Y: 665/615 Ratio

Chain of GTP-KRAS-G12D:SOS1 (P01116-2 other isoform, or with tags, fused parts or gaps G12D): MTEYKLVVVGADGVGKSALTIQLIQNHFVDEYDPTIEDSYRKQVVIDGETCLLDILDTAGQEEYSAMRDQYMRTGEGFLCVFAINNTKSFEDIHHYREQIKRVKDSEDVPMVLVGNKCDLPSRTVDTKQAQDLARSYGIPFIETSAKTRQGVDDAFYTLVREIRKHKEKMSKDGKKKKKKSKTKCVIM

| Structure (SMILES) | IC50 [nM] |
| --- | --- |
| CCc1cccc2cc(O)cc(-c3c(F)c4c5c(nc(OC[C@]67C[C@@H](F)CN6C[C@@H](CO)C7)nc5c3F)N3CC5CCC(N5)C3CO4)c12 (single isomer, unassigned) [Compound 23a, 4-((2R or 2S, 5aS,6S,9R)-1,3-Difluoro-13-(((2R,6S,7aS)-2-fluoro-6-(hydroxymethyl)tetrahydro-1H-pyrrolizin-7a(5H)-yl)methoxy)-5a,6,7,8,9,10-hexahydro-5H-6,9-epiminoazepino[2′,1′:3,4][1,4]oxazepino[5,6,7-de]quinazolin-2-yl)-5-ethylnaphthalen-2-ol dihydrochloride] | 3690 |
| CCc1cccc2cc(O)cc(-c3c(F)c4c5c(nc(OC[C@]67C[C@@H](F)CN6C[C@@H](COC)C7)nc5c3F)N3CC5CCC(N5)C3CO4)c12 (single isomer, unassigned) [Compound 18a, 4-((2R or 2S, 5aS,6S,9R)-1,3-Difluoro-13-(((2R,6S,7aS)-2-fluoro-6-(methoxymethyl)tetrahydro-1H-pyrrolizin-7a(5H)-yl)methoxy)-5a,6,7,8,9,10-hexahydro-5H-6,9-epiminoazepino[2′,1′:3,4][1,4]oxazepino[5,6,7-de]quinazolin-2-yl)-5-ethylnaphthalen-2-ol dihydrochloride] | 1940 |
| CCc1cccc2cc(O)cc(-c3c(F)c4c5c(nc(OC[C@]67C[C@@H](F)CN6C[C@@H](CN6CCCCC6)C7)nc5c3F)N3CC5CCC(N5)C3CO4)c12 (single isomer, unassigned) [Compound 27b, 4-((2S or 2R,5aS,6S,9R)-1,3-difluoro-13-(((2R,6R,7aS)-2-fluoro-6-(piperidin-1-ylmethyl)tetrahydro-1H-pyrrolizin-7a(5H)-yl)methoxy)-5a,6,7,8,9,10-hexahydro-5H-6,9-epiminoazepino[2′,1′:3,4][1,4]oxazepino[5,6,7-de]quinazolin-2-yl)-5-ethylnaphthalen-2-ol trihydrochloride] | 17.2 |
| Cc1cc(N)nc(-c2c(F)c3c4c(nc(OC[C@@]56CCCN5C[C@H](F)C6)nc4c2F)N2C[C@@H]4CCC(N4)[C@@H]2CCO3)c1C(F)(F)F (single isomer, unassigned) [Compound 26a, 6-((2S or 2R,6aS,7S,10R)-1,3-Difluoro-14-(((2R,7aS)-2-fluorotetrahydro-1H-pyrrolizin-7a(5H)-yl)methoxy)-5,6,6a,7,8,9,10,11-octahydro-7,10-epiminoazepino[1′,2′: 5,6][1,5]oxazocino[4,3,2-de]quinazolin-2-yl)-4-methyl-5-(trifluoromethyl)pyridin-2-amine] | 247 |
| Nc1nc2c(-c3c(F)c4c5c(nc(OC[C@@]67CCCN6C[C@H](F)C7)nc5c3F)N3CC5CCC(N5)C3CO4)ccc(F)c2s1 (stereo partly drawn) [Compound 19, 4-((5aS,6S,9R)-1,3-Difluoro-13-(((2R,7aS)-2-fluorotetrahydro-1H-pyrrolizin-7a(5H)-yl)methoxy)-5a,6,7,8,9,10-hexahydro-5H-6,9-epiminoazepino[2′,1′:3,4][1,4]oxazepino[5,6,7-de]quinazolin-2-yl)-7-fluorobenzo[d]thiazol-2-amine dihydrochloride] | 12.7 |
| Oc1ccc(-c2cc[nH]n2)c(-c2c(F)c3c4c(nc(OC[C@@]56CCCN5C[C@H](F)C6)nc4c2F)N2CC4CCC(N4)C2CO3)c1 (stereo partly drawn) [Compound 24, 3-((5aS,6S,9R)-1,3-Difluoro-13-(((2R,7aS)-2-fluorotetrahydro-1H-pyrrolizin-7a(5H)-yl)methoxy)-5a,6,7,8,9,10-hexahydro-5H-6,9-epiminoazepino[2′,1′:3,4][1,4]oxazepino[5,6,7-de]quinazolin-2-yl)-4-(1H-pyrazol-3-yl) phenol dihydrochloride] | 2070 |
| COCCc1cccc2cc(O)cc(-c3c(F)c4c5c(nc(OC[C@@]67CCCN6C[C@H](F)C7)nc5c3F)N3CC5CCC(N5)C3CO4)c12 (single isomer, unassigned) [Compound 12b, 4-((2S or 2R,5aS,6S,9R)-1,3-difluoro-13-(((2R,7aS)-2-fluorotetrahydro-1H-pyrrolizin-7a(5H)-yl)methoxy)-5a,6,7,8,9,10-hexahydro-5H-6,9-epiminoazepino[2′,1′:3,4][1,4]oxazepino[5,6,7-de]quinazolin-2-yl)-5-(2-methoxyethyl) naphthalen-2-ol dihydrochloride] | 21.3 |
| CCc1cccc2cc(O)cc(-c3c(F)c4c5c(nc(OC[C@@]67C[C@H](O)CN6C[C@H](F)C7)nc5c3F)N3CC5CCC(N5)C3CO4)c12 (single isomer, unassigned) [Compound 15b, (2S,6R,7aS)-7a-((((2S or 2R,5aS,6S,9R)-2-(8-ethyl-3-hydroxynaphthalen-1-yl)-1,3-difluoro-5a,6,7,8,9,10-hexahydro-5H-6,9-epiminoazepino[2′,1′:3,4][1,4]oxazepino[5,6,7-de]quinazolin-13-yl)oxy)methyl)-6-fluorohexahydro-1H-pyrrolizin-2-ol dihydrochloride] | 6.54 |
| CCc1cccc2cc(O)cc(-c3c(F)c4c5c(nc(OC[C@@]67C[C@H](O)CN6C[C@H](F)C7)nc5c3F)N3CC5CCC(N5)C3CO4)c12 (single isomer, unassigned) [Compound 15a, (2S,6R,7aS)-7a-((((2R or 2S, 5aS,6S,9R)-2-(8-Ethyl-3-hydroxynaphthalen-1-yl)-1,3-difluoro-5a,6,7,8,9,10-hexahydro-5H-6,9-epiminoazepino[2′,1′:3,4][1,4]oxazepino[5,6,7-de]quinazolin-13-yl)oxy)methyl)-6-fluorohexahydro-1H-pyrrolizin-2-ol dihydrochloride] | 2670 |
| CCc1cccc2cc(O)cc(-c3c(F)c4c5c(nc(OC[C@@]67CCCN6C[C@H](F)C7)nc5c3F)N3CC5CCC(N5)C3CO4)c12 (single isomer, unassigned) [Compound 5b, (R or S)-4-((5aS,6S,9R)-1,3-difluoro-13-(((2R,7aS)-2-fluorotetrahydro-1H-pyrrolizin-7a(5H)-yl)methoxy)-5a,6,7,8,9,10-hexahydro-5H-6,9-epiminoazepino[2′,1′:3,4][1,4]oxazepino[5,6,7-de]quinazolin-2-yl)-5-ethylnaphthalen-2-ol dihydrochloride] | 2800 |
| CCc1cccc2cc(O)cc(-c3c(F)c4c5c(nc(OC[C@]67C[C@@H](F)CN6C[C@H](CO)C7)nc5c3F)N3CC5CCC(N5)C3CO4)c12 (single isomer, unassigned) [Compound 21a, 4-((2R or 2S, 5aS,6S,9R)-1,3-Difluoro-13-(((2R,6R,7aS)-2-fluoro-6-(hydroxymethyl)tetrahydro-1H-pyrrolizin-7a(5H)-yl)methoxy)-5a,6,7,8,9,10-hexahydro-5H-6,9-epiminoazepino[2′,1′:3,4][1,4]oxazepino[5,6,7-de]quinazolin-2-yl)-5-ethylnaphthalen-2-ol dihydrochloride] | 7220 |
| Oc1cc(Cl)c2c(c1)C1(CC2)CCc2c(nc(OC[C@@]34CCCN3C[C@H](F)C4)nc2N2CC3CCC(C2)N3)C1F (single isomer, unassigned) [Compound 8c, (1S or 1R,8′R or 8'S)-4′-((1R,5S)-3,8-diazabicyclo[3.2.1]octan-3-yl)-4-chloro-8′-fluoro-2′-(((2R,7aS)-2-fluorotetrahydro-1H-pyrrolizin-7a(5H)-yl)methoxy)-2,3,5′,8′-tetrahydro-6′H-spiro[indene-1,7′-quinazolin]-6-ol dihydrochloride] | 4010 |
| CCc1cccc2cc(O)cc(-c3c(F)c4c5c(nc(OC[C@]67C[C@@H](F)CN6C[C@@H](CN6CCOCC6)C7)nc5c3F)N3CC5CCC(N5)C3CO4)c12 (single isomer, unassigned) [Compound 28a, 4-((2R or 2S, 5aS,6S,9R)-1,3-Difluoro-13-(((2R,6R,7aS)-2-fluoro-6-(morpholinomethyl)tetrahydro-1H-pyrrolizin-7a(5H)-yl)methoxy)-5a,6,7,8,9,10-hexahydro-5H-6,9-epiminoazepino[2′,1′:3,4][1,4]oxazepino[5,6,7-de]quinazolin-2-yl)-5-ethylnaphthalen-2-ol trihydrochloride] | 5300 |
| O=C1CC2(CCc3c(nc(OC[C@@]45CCCN4C[C@H](F)C5)nc3N3C[C@H]4CC[C@@H](C3)N4)C2)c2cc(O)cc(Cl)c21 (single isomer, unassigned) [Compound 6a, (S or R)-4′-((1R,5S)-3,8-Diazabicyclo[3.2.1]octan-3-yl)-4-chloro-2′-(((2R,7aS)-2-fluorotetrahydro-1H-pyrrolizin-7a(5H)-yl)methoxy)-6-hydroxy-5′,8′-dihydro-6′H-spiro[indene-1,7′-quinazolin]-3 (2H)-one dihydrochloride] | 314 |
| COc1ccc(-c2cc[nH]n2)c(-c2c(F)c3c4c(nc(OC[C@@]56CCCN5C[C@H](F)C6)nc4c2F)N2CC4CCC(N4)C2CO3)c1 (stereo partly drawn) [Compound 17, (5aS,6S,9R)-1,3-Difluoro-13-(((2R,7aS)-2-fluorotetrahydro-1H-pyrrolizin-7a(5H)-yl)methoxy)-2-(5-methoxy-2-(1H-pyrazol-3-yl)phenyl)-5a,6,7,8,9,10-hexahydro-5H-6,9-epiminoazepino[2′,1′:3,4][1,4]oxazepino[5,6,7-de]quinazoline dihydrochloride] | 8310 |
| Oc1cc(-c2c(F)c3c4c(nc(OC[C@@]56CCCN5C[C@H](F)C6)nc4c2F)N2CC4CCC(N4)C2CO3)c2c(C3CC3)cccc2c1 (single isomer, unassigned) [Compound 11b, 5-cyclopropyl-4-((2S or 2R,5aS,6S,9R)-1,3-difluoro-13-(((2R,7aS)-2-fluorotetrahydro-1H-pyrrolizin-7a(5H)-yl)methoxy)-5a,6,7,8,9,10-hexahydro-5H-6,9-epiminoazepino[2′,1′:3,4][1,4]oxazepino[5,6,7-de]quinazolin-2-yl) naphthalen-2-ol dihydrochloride] | 18.5 |
